Laboratory results: US9770040B2, “Treatment of animal carcasses” (Ecolab USA Inc., priority 1998, dated 2017)

Key:
[1] = tested on: bacterial flora present on prerigor beef samples; experiment: Working Example #1: total plate count on prerigor beef after spray, with or without steam; assay type: cell-based
Protocol: The objective of working example #1 was to determine if 0.5% and 1.0% lactic acid alone and in combination with Test Formula #1 and/or steam achieved a reduction in the bacterial flora present on prerigor beef samples. An exposure time of 10 minutes was utilized for all applications and testing was performed at 33° C. Sixteen prerigor beef samples were obtained and kept in a cooler until time of testing. Samples were aseptically divided in half. Eight different test treatments were utilized with four replicate pieces per treatment with the exception of the steam +0.5% lactic acid treatment which only had three replicate pieces. Two cores (4.3 cm diameter) were taken from each replicate piece before and after treatment, combined into 99 mL of Phosphate Buffered Dilution water, stomached for 1 minutes and then serially diluted and plated using pour plate technique. Test Products: • 1. Test Formula #1 at 200 ppm Total […] • 2. Test Formula #1 at 200 ppm Total […]+0.5% Lactic Acid • 3. Test Formula #1 at 200 ppm Total […]+1.0% Lactic Acid • 4. 0.5% Lactic Acid • 5. Steam Alone, followed by a sterile water rinse • 6. Steam+Test Formula #1 at 200 ppm Total […], followed by a sterile water rinse • 7. Steam+Test Formula #1 at 200 ppm Total […]+0.5% Lactic Acid, followed by a sterile water rinse • 8. Steam+0.5% Lactic Acid followed by a sterile water rinse Product Application: All product use solutions were applied by a spray application for 10 seconds. This delivered approximately 150 mL of product. An exposure time of 10 minutes was utilized, followed by a 10 second sterile water rinse, if applicable. Neutralizer: 99 mL of Phosphate Buffered Dilution Water Dilutions Plated: 10^0, 10^-1, 10^-2 for Total Plate Count Before • 10^0, 10^-1 for Total Plate Count After Plating Medium: Tryptone Glucose Extract Agar Incubation: 26° C. for 72 hours [table]

[2] = tested on: bacterial flora of prerigor beef; experiment: Working Example #2: total plate count on prerigor beef, extended spray and exposure times; assay type: cell-based; settings: 0.5% Lactic Acid, 25 psi, 10 sec spray, 10-minute exposure
Excerpt: The objective of the testing was to determine the efficacy of various antimicrobial treatments with extended spray and exposure times against the bacterial flora of prerigor beef. Prerigor beef samples were obtained and kept in a cooler at ambient temperature until time of testing. Ten different test treatments were utilized with four replicates per treatment. Two cores (4.3 cm diameter) were taken as each replicate from one piece for both before- and after-treatment samples and combined into 99 mL of Letheen Broth. The cores/neutralizer mixtures were stomached for 1 minute and then serially diluted and plated using pour plate technique. Test Products: • Test Formula #1* at 200 ppm […]=0.42% (4.2 mL were added to 995.8 mL tap water) • Test Formula #1* at 500 ppm […] (10.5 mL were added to 989.5 mL tap water) • 0.5% Lactic Acid • *Test Formula #1, batch # Si120972, was titrated at 4.76% total peracid. Application: Eight cores (2 cores per replicate) were placed onto a clean and sanitary screen. The cores were sprayed with the appropriate test product utilizing a 10- or 30-second spray application time. For each replicate, two cores were removed after a 10-minute exposure time and placed into a stomacher bag containing 99 mL of neutralizer. Neutralizer: 99 mL Letheen Broth Dilutions: 10^0, 10^-1, 10^-2 for Total Plate Count Before • 10^0, 10^-1 for Total Plate Count After Plating Medium: Tryptone Glucose Extract Agar Incubation: 26° C. for 72 hours Calculations: Average CFU/plate=(All eight counts from four replicates/4) • Average CFU/plate×100=Average CFU/100 mL=Y [formula] • Dilution=10, 100, or 1000 • r=2.15 cm • 2=# of cores

[3] = tested on: bacterial flora of prerigor beef; experiment: Working Example #4: total plate count on prerigor beef, high pressure spray, comparison to Lactic Acid; assay type: cell-based; settings: ~0.5% Lactic Acid, ~230 psi, 30 sec spray, 10-minute exposure
Excerpt: The objective of the testing was to determine the efficacy of Test Formula #1 at approximately 50, 100 and 200 ppm total peracid with a high pressure application spray at elevated temperatures in comparison to Lactic Acid against the bacterial flora of prerigor beef. Prerigor beef samples were obtained and kept in a cooler at ambient temperature until time of testing. Four different test treatments were utilized with four replicates per treatment. Two cores (4.3 cm diameter) were taken as each replicate from one piece for both before- and after-treatment samples and combined into 99 mL of Letheen Broth. The cores/neutralizer mixtures were stomached for 1 minute and then serially diluted and plated using pour plate technique. Test Product: Test Formula #1 at 50, 100 and 200 ppm total peracid • Lactic Acid (88% concentrate) • (Batch # Si120972, was titrated at 4.76% total peracid) Application: Eight cores (2 cores per replicate) were aseptically removed from each sample before treatment. These were used for the before-treatment samples. The remaining sample was placed onto a clean and sanitary screen. The sample was then sprayed with Test Formula #1 at approximately 50, 100 or 200 ppm total peracid utilizing a 20- or 30-second spray application time. 0.5% Lactic Acid utilized only the 30-second spray application. […]

[4] = tested on: Listeria innocua ATCC 33090; experiment: Working Example #5: inoculated prerigor beef, high-pressure spray; assay type: cell-based; settings: ˜0.5%-0.75% Lactic Acid; ~220 psi, 30 second spray, ˜120° F., 10 minutes exposure
Protocol: The objective of the testing was to determine the efficacy of Test Formula #1 and Lactic Acid against Listeria innocua ATCC 33090 with a high-pressure application spray at elevated temperatures. Prerigor beef samples were obtained and kept in a cooler at ambient temperature until time of testing. Samples were cut into 13 cm pieces and 2.0 mL of the inoculum (see Test System Preparation below) was spread evenly over the entire surface of the sample. Inoculated samples were then left at room temperature (˜23° C.) for ≧15 minutes. Four replicate samples were taken (two cores per replicate) before treatment. After each spray treatment, a 10-minute exposure time was utilized, and taken four replicate samples were taken (two cores per replicate) and stomached for 1 minute, serially diluted and plated using pour plate technique. Treatments: • 1. Test Formula #1 at 200 ppm total peracid with […], 30 second spray time. • 2. Test Formula #1 at 200 ppm total peracid with ˜150 psi pressure spray, 30 second spray time. • 3. Test Formula #1 at 200 ppm total peracid with ˜100 psi pressure spray, 30 second spray time. • 4. Water Control with ˜220 psi pressure spray, 30-second spray time. • 5. ˜0.5%-0.75% Lactic Acid with ˜220 psi pressure spray, 30-second spray time. • 6. Test Formula #1 at 100 ppm total peracid with ˜220 psi pressure spray, 30 second spray time. • 7. […]

[5] = cited from earlier work

Row | Molecule | Avg. Log10 Reduc. ([1]; 0.5% Lactic Acid, 10 s spray, 10 min exposure, 33° C.) [Log10] | Avg. CFU/100 mL After ([1]; 0.5% Lactic Acid, 10 s spray, 10 min exposure, 33° C., Before 2.7 × 10^4) | Avg. Log10 Reduc. ([1]; Steam + 0.5% Lactic Acid, with sterile water rinse) [Log10] | Avg. CFU/100 mL After ([1]; Steam + 0.5% Lactic Acid, with sterile water rinse, Before 2.5 × 10^4) | Avg. Log10 Reduc. ([2]; 98° F.) [Log10] | Avg. CFU/100 mL After ([2]; 98° F., Before 1.6 × 10^4) | Avg. Log10 Reduc. ([2]; 120° F.) [Log10] | Avg. CFU/100 mL After ([2]; 120° F., Before 1.0 × 10^5) | Avg. Log10 Reduc. [3] [Log10] | Avg. CFU/100 mL After ([3]; Before 8.7 × 10^5) | Avg. CFU/100 mL After [4] | Avg. Log10 Reduc. [4] [Log10] | solubility [5]
1 | CC(O)C(=O)O (stereo not shown) [Lactic Acid, 2-hydroxypropionic acid] | 0.91 | 5.4 × 10^3 CFU/100 mL | 1.69 | 9.3 × 10^2 CFU/100 mL | −0.01 | 1.5 × 10^4 CFU/100 mL | 0.07 | 8.4 × 10^4 CFU/100 mL | 1.58 | 2.3 × 10^4 CFU/100 mL | 3.5 × 10^5 CFU/100 mL | 1.63 | 
2 | peroxyacetic acid |  |  |  |  |  |  |  |  |  |  |  |  | freely soluble in water, alcohol, ether, and sulfuric acid
